According to patent US20150315241A1, “Antibiotic Peptides” (priority 2007, published 2015):
Values after ≈ are worked out from the molar mass of the structure shown. Read-outs that look alike come from different tables or passages of the source. Where a SMILES comes first, the peptide text is derived from it. Where no end group is shown, it is not given here. [ ]: non-standard residue; d: D form. Hyp = O=C(O)[C@@H]1C[C@@H](O)CN1; Orn = NCCC[C@H](N)C(=O)O

Tests used:
B. subtilis 347 = assay type: cell-based, Bactillus subtillis
Procedure, shortened: (§1)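 Peptides were serially diluted two-fold in 1% TSB, giving final concentrations from 125 μg/mL down to 60 ng/mL, and mixed with overnight bacterial culture adjusted to 5×10^6 CFU/mL in 1% TSB. After 20 hrs at 37 °C, growth was read as absorbance at 595 nm, in triplicate, with sterile water as negative control.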

in vitro = in vitro ADME, mouse; details: 25% aqueous mouse serum, 37° C.; read-out: Half-life time
Procedure, shortened: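 Peptide or peptidomimetic (0.5 mg/mL aqueous stock) incubated in 25% pooled mouse serum at 37 °C, sampled at 0–6 h, in duplicate. Proteins precipitated with 15% TCA; supernatants neutralized and analyzed by RP-HPLC with 0.1% TFA. Degradation products identified by MALDI-TOF/TOF-MS.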

K. pneumonia 681 = assay type: cell-based, Klebsiella pneumoniae
Procedure, shortened: as §1

[1] = test system: K. Pneumonia K6, ATCC 700603; assay: Growth inhibition assay (MIC); assay type: cell-based, Klebsiella pneumoniae; details: multidrug resistant strain; 1% TSB, 37° C., 20 hrs
Procedure, shortened: (§2)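 Broth microdilution with two-fold peptide series, final 125 μg/mL down to 60 ng/mL, against overnight cultures adjusted to 5×10^6 CFU/mL in 1% TSB. Incubated 20 h at 37° C. Growth read by absorbance at 595 nm, triplicates.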

K. Pneumonia 123132 = assay: Growth inhibition assay (MIC); assay type: cell-based, Klebsiella pneumoniae
Procedure, shortened: as §2

Mycobacterium vaccae = assay type: cell-based
Method: The minimal inhibition concentrations (MIC) of the apidaecin-derived peptides and peptide-derivatives were determined by a growth inhibition assay using a serial peptide dilution in sterilized round-bottom 96-well plates (polystyrene, U-bottom, Greiner Bio-One GmbH) with a final volume of 100 μL per well. The bacteria, e.g., E. coli BL21 A1, were grown in nutrient broth (NB, Carl Roth GmbH+Co. KG, Karlsruhe, Germany) at 37° C. over night. To each well of the 96-well plate, 50 μL of the overnight culture adjusted to 5×10^6 CFU/mL in 1% TSB were added. Lyophilized peptides and peptidomimetics were dissolved in 1% TSB (tryptic soy broth) or water to give a final concentration of 250 μg/mL. Fifty μL of the peptide or peptidomimetics solution were added to the first well of a row on the plate and mixed. Fifty μL of the first well containing the peptide solution were transferred to the second well, mixed and again 50 μL transferred to the next well and so on. Thereby, a two-fold dilution series was obtained starting at 250 μg/mL in the first well down to 120 ng/mL in the 12th well of a row giving a final peptide or peptidomimetics concentration from 125 μg/mL (well 1) to 60 ng/mL (well 12). Plates were incubated at 37° C. for 20 hrs. The absorbance was measured at 595 nm using a TECAN micro plate spectrophotometer (Tecan, Germany). All peptides and peptidomimetics were measured in triplicates. Sterilized water was used as a negative control.
The bacteria strains were tested: • Eschericha coli 1103, 10233, BL 21 AI, DC 2, • Klebsiella pneumoniae 681, • Micrococcus luteus ATCC 10240, • Mycobacterium vaccae • Bactillus subtillis 347.

M. luteus ATCC 10240 = assay type: cell-based, Micrococcus luteus
Procedure, shortened: as §1

[2] = test system: S. enterica subsp. Enterica serovar. typhi G10215 ATCC 700408; assay type: cell-based, Salmonella enterica; details: ATCC 700408, 20 h
Procedure, shortened: as §2

E. coli D31 = assay type: cell-based, Escherichia coli; details: D31, 20 h
Procedure, shortened: as §2

E. coli DC 2 = assay: Growth inhibition assay (MIC); assay type: cell-based, Escherichia coli; details: 1% TSB, 37° C., 20 hrs
Procedure, shortened: as §1

E. coli BL 21 AI = assay: Growth inhibition assay (MIC); assay type: cell-based, Escherichia coli; details: 1% TSB, 37° C., 20 hrs
Procedure, shortened: as §1

S. typhi S5 = assay type: cell-based, Salmonella typhi; details: S5, 20 h
Procedure, shortened: as §2

[3] = test system: R. radiobatter ATCC 15955; assay: Growth inhibition assay (MIC); assay type: cell-based, Rhizobium radiobacter
Procedure, shortened: as §2

E. coli 45849 = assay: Growth inhibition assay (MIC); assay type: cell-based, Escherichia coli
Procedure, shortened: as §2

E. coli 1103 = assay type: cell-based, Escherichia coli
Procedure, shortened: as §1

E. coli 10233 = assay type: cell-based, Escherichia coli
Procedure, shortened: as §1

[4] = multidrug resistant strain, 1% TSB, 37° C., 20 hrs

| Compound | MIC B. subtilis 347 (B. subtilis 347; 347, 20 h) [µg/mL] | half-life at 0.061 mg/mL (in vitro) [min] | MIC K. pneumonia 681 (K. pneumonia 681; 20 h) [µg/mL] | MIC K. Pneumonia K6, ATCC 700603 [1] [µg/mL] | MIC K. Pneumonia 123132 (K. Pneumonia 123132; [4]) [µg/mL] | MIC Mycobacterium vaccae (Mycobacterium vaccae; 20 h) [µg/mL] | MIC M. luteus ATCC 10240 (M. luteus ATCC 10240; ATCC 10240, 20 h) [µg/mL] | MIC S. enterica subsp. Enterica serovar. typhi G10215 ATCC 700408 [2] [µg/mL] | MIC E. coli D31 (E. coli D31) [µg/mL] | MIC E. coli DC 2 (E. coli DC 2) [µg/mL] | MIC E. coli BL 21 AI (E. coli BL 21 AI) [µg/mL] | MIC S. typhi S5 (S. typhi S5) [µg/mL] | MIC R. radiobatter ATCC 15955 [3, 4] [µg/mL] | MIC E. coli 45849 (E. coli 45849; [4]) [µg/mL] | MIC E. coli 1103 (E. coli 1103; 1103, 20 h) [µg/mL] | MIC B. subtilis 347 (B. subtilis 347; 1% TSB, 37° C., 20 hrs) [µg/mL] | MIC K. pneumonia 681 (K. pneumonia 681; 1% TSB, 37° C., 20 hrs) [µg/mL] | MIC K. Pneumonia 123132 (K. Pneumonia 123132; 20 h) [µg/mL] | MIC Mycobacterium vaccae (Mycobacterium vaccae; 1% TSB, 37° C., 20 hrs) [µg/mL] | MIC M. luteus ATCC 10240 (M. luteus ATCC 10240; 1% TSB, 37° C., 20 hrs) [µg/mL] | other results |
| --- | --- | --- | --- | --- | --- | --- | --- | --- | --- | --- | --- | --- | --- | --- | --- | --- | --- | --- | --- | --- | --- |
| CC[C@H](C)[C@H](NC(=O)[C@H](Cc1ccc(O)cc1)NC(=O)[C@@H](NC(=O)[C@@H]1CCCN1C(=O)[C@H](CCCNC(=N)N)NC(=O)[C@H](CC(N)=O)NC(=O)[C@H](CC(N)=O)NC(=O)[C@H](CCCN)NC(C)=O)C(C)C)C(=O)N1CCC[C@H]1C(=O)N[C@@H](CCC(N)=O)C(=O)N1CCC[C@H]1C(=O)N[C@@H](CCCNC(=N)N)C(=O)N1CCC[C@H]1C(=O)N1CCC[C@H]1C(=O)N[C@@H](Cc1c[nH]cn1)C(=O)N1CCC[C@H]1C(=O)N[C@@H](CCCNC(=N)N)C(=O)N[C@@H](CC(C)C)C(N)=O [compound 7] (Ac-[Orn]NNRPVYIPQPRPPHPRL-NH2) | >125 | 15 | 1.95 (≈ 0.884 µM) | 64 (≈ 29 µM) | 16 (≈ 7.25 µM) | 125 (≈ 56.6 µM) | 3.91 (≈ 1.77 µM) | 0.5 to 1 | 4 to 8 | 3.9 (≈ 1.77 µM) | 0.49 (≈ 0.222 µM) | 2 (≈ 0.906 µM) | <0.16 | 1 (≈ 0.453 µM) | 1.95 (≈ 0.884 µM) |  |  |  |  |  |  |
| CC[C@H](C)[C@H](NC(=O)[C@H](Cc1ccc(O)cc1)NC(=O)[C@@H](NC(=O)[C@@H]1CCCN1C(=O)[C@H](CCCNC(=N)N)NC(=O)[C@H](CC(N)=O)NC(=O)[C@H](CC(N)=O)NC(=O)[C@@H](N)CCCN)C(C)C)C(=O)N1CCC[C@H]1C(=O)N[C@@H](CCC(N)=O)C(=O)N1CCC[C@H]1C(=O)N[C@@H](CCCNC(=N)N)C(=O)N1CCC[C@H]1C(=O)N1CCC[C@H]1C(=O)N[C@@H](Cc1c[nH]cn1)C(=O)N1CCC[C@H]1C(=O)N[C@@H](CCCNC(=N)N)C(=O)N[C@@H](CC(C)C)C(N)=O [compound 8] (H-[Orn]NNRPVYIPQPRPPHPRL-NH2) | >125 | 30 | 1.95 (≈ 0.901 µM) | 16 (≈ 7.39 µM) | 1 (≈ 0.462 µM) | 125 (≈ 57.7 µM) | 7.84 (≈ 3.62 µM) | <0.25 | 2 (≈ 0.924 µM) | 0.98 (≈ 0.453 µM) | 0.24 (≈ 0.111 µM) | <0.5 | <0.16 | <0.25 |  |  |  |  |  |  |  |
| CC[C@H](C)[C@H](NC(=O)[C@H](CCCNC(=N)N)NC(=O)[C@@H]1CCCN1C(=O)[C@H](Cc1c[nH]cn1)NC(=O)[C@@H]1CCCN1C(=O)[C@@H]1CCCN1C(=O)[C@H](CCCNC(=N)N)NC(=O)[C@@H]1CCCN1C(=O)[C@H](CCCN)NC(=O)[C@@H]1CCCN1C(=O)[C@@H](NC(=O)[C@H](Cc1ccc(O)cc1)NC(=O)[C@@H](NC(=O)[C@@H]1CCCN1C(=O)[C@H](CCCNC(=N)N)NC(=O)[C@H](CC(N)=O)NC(=O)[C@H](CC(N)=O)NC(=O)CN)C(C)C)[C@@H](C)CC)C(N)=O [compound 9] (H-GNNRPVYIP[Orn]PRPPHPRI-NH2) |  |  |  | 16 (≈ 7.64 µM) |  |  |  |  | 16 (≈ 7.64 µM) | 1.95 (≈ 0.931 µM) | 0.49 (≈ 0.234 µM) | 2 (≈ 0.955 µM) |  |  |  | >125 | 3.9 (≈ 1.86 µM) | 8 (≈ 3.82 µM) | 125 (≈ 59.7 µM) | 1.95 (≈ 0.931 µM) | MIC R. radiobatter ATCC 15955 ([3]; ATCC 15955, 20 h): <0.16 µg/mL; MIC E. coli 45849 (E. coli 45849; 45849, 20 h): 1 µg/mL (≈ 0.478 µM); MIC E. coli 1103 (E. coli 1103; 1% TSB, 37° C., 20 hrs): 3.9 µg/mL (≈ 1.86 µM) |
| CC[C@H](C)[C@H](NC(=O)[C@H](Cc1ccc(O)cc1)NC(=O)[C@@H](NC(=O)[C@@H]1CCCN1C(=O)[C@H](CCCNC(=N)N)NC(=O)[C@H](CC(N)=O)NC(=O)[C@H](CC(N)=O)NC(=O)CN)C(C)C)C(=O)N1CCC[C@H]1C(=O)N[C@@H](CCCN)C(=O)N1C[C@H](O)C[C@H]1C(=O)N[C@@H](CCCNC(=N)N)C(=O)N1CCC[C@H]1C(=O)N1CCC[C@H]1C(=O)N[C@@H](Cc1c[nH]cn1)C(=O)N1CCC[C@H]1C(=O)N[C@@H](CCCNC(=N)N)C(=O)N[C@@H](CC(C)C)C(N)=O [compound 11] (H-GNNRPVYIP[Orn][Hyp]RPPHPRL-NH2) |  |  |  | 8 (≈ 3.79 µM) |  |  |  | <0.25 | 8 (≈ 3.79 µM) | 0.98 (≈ 0.465 µM) | 0.49 (≈ 0.232 µM) | <0.5 |  |  |  | 125 (≈ 59.3 µM) | 1.95 (≈ 0.924 µM) | 8 (≈ 3.79 µM) | 125 (≈ 59.3 µM) | 1.95 (≈ 0.924 µM) | MIC R. radiobatter ATCC 15955 ([3]; ATCC 15955, 20 h): <0.16 µg/mL; MIC E. coli 45849 (E. coli 45849; 45849, 20 h): 1 µg/mL (≈ 0.474 µM); MIC E. coli 1103 (E. coli 1103; 1% TSB, 37° C., 20 hrs): 3.9 µg/mL (≈ 1.85 µM); MIC E. coli 10233 (E. coli 10233; 1% TSB, 37° C., 20 hrs): 3.91 µg/mL (≈ 1.85 µM) |
| CC[C@H](C)[C@H](NC(=O)[C@H](Cc1ccc(O)cc1)NC(=O)[C@@H](NC(=O)[C@@H]1CCCN1C(=O)[C@H](CCCNC(=N)N)NC(=O)[C@H](CC(N)=O)NC(=O)[C@H](CC(N)=O)NC(=O)CN)C(C)C)C(=O)N1CCC[C@H]1C(=O)N[C@@H](CCCNC(=N)N)C(=O)N1C[C@H](O)C[C@H]1C(=O)N[C@@H](CCCNC(=N)N)C(=O)N1CCC[C@H]1C(=O)N1CCC[C@H]1C(=O)N[C@@H](Cc1c[nH]cn1)C(=O)N1CCC[C@H]1C(=O)N[C@@H](CCCNC(=N)N)C(=O)N[C@@H](CC(C)C)C(N)=O [compound 20] (H-GNNRPVYIPR[Hyp]RPPHPRL-NH2) | >125 |  | 3.9 (≈ 1.81 µM) | 8 (≈ 3.72 µM) | 4 (≈ 1.86 µM) | 125 (≈ 58.1 µM) | 1.95 (≈ 0.906 µM) |  | 32 (≈ 14.9 µM) | 1.95 to 3.91 | 0.49 (≈ 0.228 µM) | <0.5 | 0.33 (≈ 0.153 µM) | 1 (≈ 0.465 µM) | 3.9 (≈ 1.81 µM) |  |  |  |  |  |  |
| GNNRPVYIPQPRPPHPRI [compound 1] | >125 |  | 15.62 | 64 |  | >125 | 31.25 | 2 | 64 | 3.91 | 0.98 |  |  |  | 1.95 |  |  |  |  |  | MIC E. coli 10233 (E. coli 10233; 10233, 20 h): 1.95 µg/mL |
